Results as given in patent US9049864B2, “Pyridazinone herbicidal compounds” (Syngenta Limited, priority 2012, dated 2015).

Experiments:
Experiment in all cases: Post-emergence herbicidal glasshouse test, percentage damage to the plant
Assay type in all cases: in vivo
[1] = system: Echinochloa crus-galli (ECHCG)
Protocol: (§1) Seeds of a variety of test species are sown in standard soil in pots:—Solanum nigrum (SOLNI), Amaranthus retoflexus (AMARE), Setaria faberi (SETFA), Alopecurus myosuroides (ALOMY), Echinochloa crus-galli (ECHCG), Ipomoea hederacea (IPOHE). After 8 days cultivation (post-emergence) under controlled conditions in a glasshouse (at 24/16° C., day/night; 14 hours light; 65% humidity), the plants are sprayed with an aqueous spray solution derived from the formulation of the technical active ingredient in acetone/water (50:50) solution containing 0.5% Tween 20 (polyoxyethelyene sorbitan monolaurate, CAS RN 9005-64-5). Compounds are applied at 1000 g/ha. The test plants are then grown in a glasshouse under controlled conditions in a glasshouse (at 24/16° C., day/night; 14 hours light; 65% humidity) and watered twice daily. After 13 days, the test is evaluated for the percentage damage caused to the plant. The biological activities are shown in the following table on a five point scale (5=80-100%; 4=60-79%; 3=40-59%; 2=20-39%; 1=0-19%). A comparative experiment is conducted to compare the biological efficacy of a compound of the present invention with those of WO 2011/045271. The test is performed as outlined above using the following compounds. Three different application rates are employed (250 g/ha, 500 g/ha and 1000 g/ha).

[2] = system: Alopecurus myosuroides (ALOMY)
Protocol: as §1

Solanum nigrum (SOLNI) = system: Solanum nigrum (SOLNI)
Protocol: as §1

[3] = system: Ipomoea hederacea (IPOHE)
Protocol: as §1

[4] = system: Amaranthus retoflexus (AMARE)
Protocol: as §1

Setaria faberi (SETFA) = system: Setaria faberi (SETFA)
Protocol: as §1

[5] = post-emergence, 1000 g/ha, evaluated after 13 days
[6] = comparative experiment, rate 250 g/ha
[7] = comparative experiment, rate 500 g/ha
[8] = comparative experiment, rate 1000 g/ha

| Compound | POST Application ECHCG, percentage damage (five point scale) [1, 5] | POST Application ALOMY, percentage damage (five point scale) [2, 5] | POST Application SOLNI, percentage damage (five point scale) (Solanum nigrum (SOLNI); [5]) | POST Application IPOHE, percentage damage (five point scale) [3, 5] | POST Application AMARE, percentage damage (five point scale) [4, 5] | POST Application SETFA, percentage damage (five point scale) (Setaria faberi (SETFA); [5]) | further results |
| --- | --- | --- | --- | --- | --- | --- | --- |
| CN1N=CC(=O)C(n2ccc3ccc(Br)cc32)C1=O (stereo not drawn) [Compound 1.006] | 1 (1=0-19%) | 1 (1=0-19%) | 4 (4=60-79%) | 1 (1=0-19%) | 1 (1=0-19%) | 1 (1=0-19%) | – |
| Cc1cc(Cl)nn1C1C(=O)C=NN(C)C1=O (stereo not drawn) [Compound B, reference compound] | – | – | – | – | – | – | POST Application ECHCG, percentage damage (five point scale) [1, 6]: 1 (1=0-19%); POST Application ECHCG, percentage damage (five point scale) [1, 7]: 1 (1=0-19%); POST Application ECHCG, percentage damage (five point scale) [1, 8]: 2 (2=20-39%); POST Application ALOMY, percentage damage (five point scale) [2, 6]: 1 (1=0-19%); POST Application ALOMY, percentage damage (five point scale) [2, 7]: 1 (1=0-19%); POST Application ALOMY, percentage damage (five point scale) [2, 8]: 2 (2=20-39%); POST Application SOLNI, percentage damage (five point scale) (Solanum nigrum (SOLNI); [6]): 2 (2=20-39%); POST Application SOLNI, percentage damage (five point scale) (Solanum nigrum (SOLNI); [7]): 3 (3=40-59%); POST Application SOLNI, percentage damage (five point scale) (Solanum nigrum (SOLNI); [8]): 4 (4=60-79%); POST Application IPOHE, percentage damage (five point scale) [3, 6]: 1 (1=0-19%); POST Application IPOHE, percentage damage (five point scale) [3, 7]: 2 (2=20-39%); POST Application IPOHE, percentage damage (five point scale) [3, 8]: 5 (5=80-100%); POST Application AMARE, percentage damage (five point scale) [4, 6]: 2 (2=20-39%); POST Application AMARE, percentage damage (five point scale) [4, 7]: 3 (3=40-59%); POST Application AMARE, percentage damage (five point scale) [4, 8]: 4 (4=60-79%); POST Application SETFA, percentage damage (five point scale) (Setaria faberi (SETFA); [6]): 1 (1=0-19%); POST Application SETFA, percentage damage (five point scale) (Setaria faberi (SETFA); [7]): 1 (1=0-19%); POST Application SETFA, percentage damage (five point scale) (Setaria faberi (SETFA); [8]): 1 (1=0-19%) |
| CN1N=CC(=O)C(n2cc(Cl)c3ccccc32)C1=O (stereo not drawn) [Compound 1.012, 4-(3-Chloro-indol-1-yl)-2-methyl-2H-pyridazine-3,5-dione] | 2 (2=20-39%) | 1 (1=0-19%) | 5 (5=80-100%) | 5 (5=80-100%) | 5 (5=80-100%) | 5 (5=80-100%) | – |
| CN1N=CC(=O)C(n2ncc3ccccc32)C1=O (stereo not drawn) [Compound 1.009] | 1 (1=0-19%) | 1 (1=0-19%) | 4 (4=60-79%) | 1 (1=0-19%) | 4 (4=60-79%) | 1 (1=0-19%) | – |
| CC(C)N1N=CC(=O)C(n2cc(Cl)c3ccccc32)C1=O (stereo not drawn) [Compound 1.010] | 1 (1=0-19%) | 1 (1=0-19%) | 3 (3=40-59%) | 1 (1=0-19%) | 1 (1=0-19%) | 1 (1=0-19%) | – |
| CCC1=NN(C)C(=O)C(n2c(Cl)c(Cl)c3ccccc32)C1=O (stereo not drawn) [Compound 2.027] | 1 (1=0-19%) | 1 (1=0-19%) | 5 (5=80-100%) | 5 (5=80-100%) | 4 (4=60-79%) | 1 (1=0-19%) | – |
| CC(C)OCC1=NN(C)C(=O)C(n2c(Cl)c(Cl)c3ccccc32)C1=O (stereo not drawn) [Compound 2.014] | 1 (1=0-19%) | 1 (1=0-19%) | 4 (4=60-79%) | 5 (5=80-100%) | 2 (2=20-39%) | 1 (1=0-19%) | – |
| CN1N=CC(=O)C(n2ccc3cc(Br)ccc32)C1=O (stereo not drawn) [Compound 1.004] | 1 (1=0-19%) | 1 (1=0-19%) | 4 (4=60-79%) | 1 (1=0-19%) | 1 (1=0-19%) | 1 (1=0-19%) | – |
| CCOC1=NN(C)C(=O)C(n2c(Cl)c(Cl)c3ccccc32)C1=O (stereo not drawn) [Compound 2.023] | 1 (1=0-19%) | 1 (1=0-19%) | 4 (4=60-79%) | 4 (4=60-79%) | 2 (2=20-39%) | 1 (1=0-19%) | – |
| Cc1nn(C)c(=O)c(-n2c(Cl)c(Cl)c3ccccc32)c1OC(=O)SC(C)C [Compound 3.001, [5-(2,3-dichloroindol-1-yl)-1,3-dimethyl-6-oxo-pyridazin-4-yl]isopropylsulfanylformate] | 1 (1=0-19%) | 1 (1=0-19%) | 5 (5=80-100%) | 5 (5=80-100%) | 5 (5=80-100%) | 1 (1=0-19%) | – |
| CC[S+]([O-])C1=NN(C)C(=O)C(n2c(Cl)c(Cl)c3ccccc32)C1=O (stereo not drawn) [Compound 2.006] | 1 (1=0-19%) | 1 (1=0-19%) | 4 (4=60-79%) | 4 (4=60-79%) | 1 (1=0-19%) | 1 (1=0-19%) | – |
| Cc1nn(C)c(=O)c(-n2c(Cl)c(Cl)c3ccccc32)c1OC(=O)OCC(C)C [Compound 3.010] | 3 (3=40-59%) | 1 (1=0-19%) | 5 (5=80-100%) | 5 (5=80-100%) | 5 (5=80-100%) | 1 (1=0-19%) | – |
